Earlier results, collected in patent publication US7244749B2, “Compositions and methods for lowering plasma lipoprotein(a) and risk factors of cardiovascular diseases” (priority 2000, dated 2007).

Test system: plasma Lp(a)
Conditions: males with prostatic cancer

Estrogen
reduction of plasma Lp(a): 50%
